Activity calls are given as the source filed them. No cut-off for these calls is given here.
Columns and labels:
Format in all cases: functional
[1] = test system: Lactuca sativa; assay: Reduction of Lactuca sativa seeds germination at 100 uM daily for 5 days relative to control; set-up: Activity: scale not given: the % may be the effect or the level left; conditions: for inhibition at 100 µM: Lactuca sativa, 120 h
[2] = test system: Lactuca sativa; assay: Reduction of Lactuca sativa length development; set-up: scale not given: the % may be the effect or the level left
[3] = test system: Lactuca sativa; assay: Reduction of Lactuca sativa root length at 0.1 uM relative to control; set-up: scale not given: the % may be the effect or the level left
[4] = test system: Lactuca sativa; assay: Reduction of Lactuca sativa shoot length at 0.1 uM relative to control; set-up: scale not given: the % may be the effect or the level left

For `CC(=O)/C=C/C=C(C)/C=C/[C@@]1(O)C(C)=CC(=O)CC1(C)C`, the Activity [1] was 20%.
`CC(=O)/C=C/C=C(C)/C=C/[C@H]1C(C)=C[C@H](O)CC1(C)C` was tested, and the Activity [1] was 20%.
For `CC1=CC(=O)CC(C)(C)[C@@]1(O)/C=C/C(C)=C/CO`, the Activity [1] was “Active”.
With `CC(=O)/C=C/[C@H]1C(C)=CC(=O)CC1(C)C` the inhibition at 100 µM [1] was 30%.
With `CC(=O)/C=C/[C@H]1C(C)=C[C@H](O)CC1(C)C` the inhibition at 100 µM [1] was 30%.
In the case of `CC1=CC(=O)CC(C)(C)[C@@]1(O)/C=C/[C@@H](C)O` [BLUMENOL A], the Activity [2] is reported as 30%.
In the case of `CC(=O)C=C=C1C(C)(C)C[C@H](O)C[C@@]1(C)O`, the Activity [3] is reported as 20% and the Activity [4] is reported as 30%.
With `CC(=O)/C=C/[C@@]1(O)C(C)=CC(=O)CC1(C)C` the Activity [2] was 30%.

Reference: ChEMBL document CHEMBL1148223, “Isolation and phytotoxicity of apocarotenoids from Chenopodium album” (2004)
